Assay results published in patent publication US8278312B2, “Imidazo 1,2-a pyrimidine derivatives for the treatment of diseases such as diabetes” (Merck Patent Gesellschaft mit Beschränkter Haftung, priority 2007, dated 2012).

What was measured:
SGLT2 = molecular target: T1, SGLT2 (Homo sapiens, UniProt P31639); assay: 14C-AMG uptake in BHK cells transfected with SGLT2 (96-well cell-based assay); details: 2 mM AMG, 37° C., 90 min
T1 construct: expressed in transfected cells
T1 sequence (P31639 1-672): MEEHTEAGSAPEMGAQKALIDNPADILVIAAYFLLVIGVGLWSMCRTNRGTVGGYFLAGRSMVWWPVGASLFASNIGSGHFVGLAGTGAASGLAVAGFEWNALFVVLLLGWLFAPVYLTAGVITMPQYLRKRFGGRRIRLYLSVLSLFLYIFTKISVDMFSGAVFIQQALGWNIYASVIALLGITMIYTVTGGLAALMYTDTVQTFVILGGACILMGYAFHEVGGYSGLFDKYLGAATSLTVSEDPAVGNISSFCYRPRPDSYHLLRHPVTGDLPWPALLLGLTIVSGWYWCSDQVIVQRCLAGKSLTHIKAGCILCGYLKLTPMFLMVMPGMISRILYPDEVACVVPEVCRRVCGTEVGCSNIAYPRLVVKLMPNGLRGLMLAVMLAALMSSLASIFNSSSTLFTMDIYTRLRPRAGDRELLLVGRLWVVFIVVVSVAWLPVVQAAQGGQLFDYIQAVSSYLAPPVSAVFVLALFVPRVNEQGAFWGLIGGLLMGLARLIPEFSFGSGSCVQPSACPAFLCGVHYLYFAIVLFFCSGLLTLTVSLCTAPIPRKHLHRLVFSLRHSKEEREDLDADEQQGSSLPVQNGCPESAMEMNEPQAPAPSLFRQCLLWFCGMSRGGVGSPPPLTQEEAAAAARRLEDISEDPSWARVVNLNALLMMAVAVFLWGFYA
From the text: (§1) The compounds can be tested for their SGLT inhibition properties by means of BHK cells expressing SGLT1 and SGLT2. The production of the cells and the testing can be carried out as described below.
To construct the SGLT2 expression vector (KL224), the SLC5A2 gene (homologous to NM_003041) was amplified from a cDNA library using standard PCR technology and cloned over NheI/XhoI sites into PCI-neo expression vector (Promega) containing neomycin as a selection marker. In this vector, transcription uses the enhancer/promoter of human cytomegalovirus and the SV40 polyadenylation signal.
(§2) The final vector KL224 together with an additional vector containing a dihydrofolate reductase gene as a selection marker was introduced into cells. Transfection into BHK21 cells (ATCC CCL-10), cultivated in DMEM medium (GIBCO/BRL), supplemented with 10% foetal calf serum (FCS) and 20 mM glutamine, was carried out using calcium phosphate transfections according to Graham, F. L. and van der Ebb, A. J. (1973), Virology 52: 456 with 5-20 μg of uncut plasmids for 10^7 cells. Stable transfectants were selected in medium containing 1 mg/ml of G418 (GIBCO/BRL) and 20-5000 nM methotrexate as final concentration, where only cells which expressed the neomycin gene and overexpressed the dhfr gene were able to grow. After growth for 2-3 weeks, the cells were cloned (0.5 cells/well) and the clones were investigated for SGLT expression in radioactivity uptake tests. […]
(§3) A 96-well cell-based assay was developed and adapted to HTS requirements:
(§4) BHK cells (transfected with SGLT1 or SGLT2) were seeded into 96-well microtitre plates (Cultureplates, Perkin Elmer). After at least 24 h, medium was removed, and the cell layer was washed with assay buffer (140 mM NaCl, 2 mM KCl, 1 mM CaCl2, 1 mM MgCl2, 10 mM HEPES, 5 mM Tris, adjusted to pH 7.4 using 1 M KOH). After addition of 40 μl of assay buffer, 50 μl of AMG (50 μM for SGLT1 and 2 mM for SGLT2) in the presence or absence of compounds, the cells were incubated in a total volume of 100 μl at 37° C. for 90 min. Supernatant was removed by suction and discarded. Cells were washed and lysed by addition of 50 μl of water. After 10 min at room temperature, 200 μl of Micrsoscint 40 (Perkin Elmer) were added. The radioactivity was counted in a Topcount microplate scintillation counter (Perkin Elmer). The non-specific uptake was determined in sodium-free assay buffer (266 mM sucrose, 2 mM KCl, 1 mM CaCl2, 1 mM MgCl2, 10 mM HEPES, 5 mM Tris, adjusted to pH 7.4 using 1 M KOH).

SGLT1 = molecular target: T2, SGLT1 (Homo sapiens, UniProt P13866); assay: 14C-AMG uptake in BHK cells transfected with SGLT1 (96-well cell-based assay); details: 50 μM AMG, 37° C., 90 min
T2 construct: expressed in transfected cells
T2 sequence (P13866 1-664): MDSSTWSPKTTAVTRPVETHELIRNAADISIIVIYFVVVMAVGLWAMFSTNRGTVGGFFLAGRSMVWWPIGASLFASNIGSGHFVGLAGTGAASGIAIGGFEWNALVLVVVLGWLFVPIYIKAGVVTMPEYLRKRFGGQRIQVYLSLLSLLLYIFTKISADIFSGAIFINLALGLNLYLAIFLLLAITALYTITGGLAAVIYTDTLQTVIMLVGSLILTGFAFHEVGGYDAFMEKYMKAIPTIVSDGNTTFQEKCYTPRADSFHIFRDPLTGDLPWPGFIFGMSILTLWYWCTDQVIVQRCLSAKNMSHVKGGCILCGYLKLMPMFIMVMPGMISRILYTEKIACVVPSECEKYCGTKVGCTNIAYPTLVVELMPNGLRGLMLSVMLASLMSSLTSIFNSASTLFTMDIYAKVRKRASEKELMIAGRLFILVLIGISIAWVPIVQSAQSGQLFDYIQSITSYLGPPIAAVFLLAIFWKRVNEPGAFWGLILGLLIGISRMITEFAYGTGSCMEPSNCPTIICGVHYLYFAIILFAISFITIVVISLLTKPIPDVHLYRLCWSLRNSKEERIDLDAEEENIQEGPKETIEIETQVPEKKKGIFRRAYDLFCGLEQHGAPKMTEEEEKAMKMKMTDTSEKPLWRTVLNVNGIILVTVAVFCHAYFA
From the text: as §1
To construct the SGLT1 expression vector (KL225), the SLC5A1 gene (homologous to NM_000343) was amplified from a cDNA library using standard PCR technology and cloned over NheI/XhoI sites into the pcDNA3.1 expression vector (Invitrogen) containing neomycin as a selection marker. In this vector, transcription uses the enhancer/promoter of human cytomegalovirus.
as §2, with “KL225” for “KL224”
as §3, §4

IC50 (SGLT2) [nM]	IC50 (SGLT1) [nM]	Compound
10 to 1000	> 10000	CNc1nnc(-c2cc(OC)ccc2-c2nc3ncccn3c2Nc2c(C)cccc2C)o1 [Compound A21, (2,6-Dimethylphenyl)-{2-[4-methoxy-2-(5-methylamino-1,3,4-oxadiazol-2-yl)-phenyl]imidazo[1,2-a]pyrimidin-3-yl}-amine]
10 to 1000	10 to 1000	CNc1nnc(-c2cccc(Cl)c2-c2nc3ncccn3c2Nc2c(C)cccc2Cl)o1 [Compound A22, {2-[2-Chloro-6-(5-methylamino-1,3,4-oxadiazol-2-yl)phenyl]imidazo[1,2-a]-pyrimidin-3-yl}-(2-chloro-6-methylphenyl)-amine]
10 to 1000	10 to 1000	CNc1nnc(-c2cc(OC)cc(OC)c2-c2nc3ncccn3c2Nc2c(Cl)ccc(C)c2Cl)o1 [Compound A23, (2,6-Dichloro-3-methylphenyl)-{2-[2,4-dimethoxy-6-(5-methylamino-1,3,4-oxadiazol-2-yl)phenyl]imidazo[1,2-a]-pyrimidin-3-yl}amine]
10 to 1000	10 to 1000	CCNC(=O)c1cc(OC)cc(OC)c1-c1nc2ncccn2c1Nc1c(Cl)ccc(C)c1Cl [Compound A24, 2-[3-(2,6-dichloro-3-methylphenylamino)imidazo[1,2-a]-pyrimidin-2-yl]-N-ethyl-3,5-dimethoxybenzamide]
> 10000	> 10000	CNc1nnc(-c2ccccc2-c2nc3ncccn3c2Nc2c(C)noc2C)o1 [Compound A25, (3,5-Dimethylisoxazol-4-yl)-{2-[2-(5-methylamino-1,3,4-oxadiazol-2-yl)-phenyl]imidazo[1,2-a]pyrimidin-3-yl}-amine]
10 to 1000	1000 to 10000	CNc1nnc(-c2cccc(F)c2-c2nc3ncccn3c2Nc2c(C)cccc2Cl)o1 [Compound A26, (2-Chloro-6-methylphenyl)-{2-[2-fluoro-6-(5-methylamino-1,3,4-oxadiazol-2-yl)-phenyl]imidazo[1,2-a]pyrimidin-3-yl}-amine]
10 to 1000	1000 to 10000	CNc1nnc(-c2cccc(F)c2-c2nc3ncccn3c2Nc2c(C)cc(F)cc2C)o1 [Compound A27, (4-Fluoro-2,6-dimethylphenyl)-{2-[2-fluoro-6-(5-methylamino-1,3,4-oxadiazol-2-yl)phenyl]imidazo[1,2-a]pyrimidin-3-yl}-amine]
10 to 1000	1000 to 10000	(2,6-Dichlorophenyl)-{2-[2-(5-methyl-amino-1,3,4-oxadiazol-2-yl)phenyl]-imidazo[1,2-a]pyrimidin-3-yl}amine [Compound A14]
